Laboratory results reported in patent US20010039287A1, “AROMATIC SULFONE HYDROXAMIC ACID METALLOPROTEASE INHIBITOR” (priority 1997, published 2001).
Where a name gives a salt, the structure may show the parent alone. Read-outs that look alike come from different tables or passages of the source.

What was measured:
recombinant human MMP-2 = target: T1, recombinant human MMP-2 (Homo sapiens, UniProt P08253); assay: biochemical
T1 sequence (P08253 110-660): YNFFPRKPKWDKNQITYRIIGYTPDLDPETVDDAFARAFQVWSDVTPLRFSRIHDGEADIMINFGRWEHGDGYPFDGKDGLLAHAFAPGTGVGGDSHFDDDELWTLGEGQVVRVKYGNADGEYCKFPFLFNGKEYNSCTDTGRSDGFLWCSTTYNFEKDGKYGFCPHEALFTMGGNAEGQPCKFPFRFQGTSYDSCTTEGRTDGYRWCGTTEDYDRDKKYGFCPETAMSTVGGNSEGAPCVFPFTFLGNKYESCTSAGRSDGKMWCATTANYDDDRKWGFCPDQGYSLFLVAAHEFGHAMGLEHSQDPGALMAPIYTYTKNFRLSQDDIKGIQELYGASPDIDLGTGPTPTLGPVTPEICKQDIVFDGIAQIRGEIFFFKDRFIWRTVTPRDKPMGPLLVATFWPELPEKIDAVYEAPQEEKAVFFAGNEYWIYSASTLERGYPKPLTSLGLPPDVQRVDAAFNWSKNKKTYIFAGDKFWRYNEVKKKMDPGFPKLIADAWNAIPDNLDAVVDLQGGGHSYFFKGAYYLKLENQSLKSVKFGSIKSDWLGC

recombinant human MMP-1 = target: T2, recombinant human MMP-1 (Homo sapiens, UniProt P03956); assay: biochemical
T2 construct: made in house; host or cells: transfected HT-1080 cells (provided by Dr. Harold Welgus, Washington University)
T2 sequence (P03956 100-469): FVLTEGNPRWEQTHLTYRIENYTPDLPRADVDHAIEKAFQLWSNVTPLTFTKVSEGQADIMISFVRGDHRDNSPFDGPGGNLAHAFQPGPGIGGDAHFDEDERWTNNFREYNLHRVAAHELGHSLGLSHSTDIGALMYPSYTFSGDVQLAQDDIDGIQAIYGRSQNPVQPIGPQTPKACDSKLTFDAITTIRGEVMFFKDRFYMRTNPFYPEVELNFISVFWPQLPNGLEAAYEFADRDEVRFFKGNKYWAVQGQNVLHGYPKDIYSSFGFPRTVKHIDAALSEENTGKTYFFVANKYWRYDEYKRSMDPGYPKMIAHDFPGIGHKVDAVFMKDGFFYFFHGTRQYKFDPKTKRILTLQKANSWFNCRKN

TNFα = assay: Tumor necrosis factor assay: TNFα ELISA on PMA-stimulated U-937 cell supernatant; settings: Homo sapiens, U-937, read-out: TNFα Release IC50 in micromolar
recombinant human MMP-13 = recombinant human MMP-13 (Homo sapiens, UniProt P45452); assay: biochemical
recombinant human MMP-9 = recombinant human MMP-9 (Homo sapiens, UniProt P14780); assay: biochemical
Sequence of recombinant human MMP-9 (P14780 107-707 limits assumed): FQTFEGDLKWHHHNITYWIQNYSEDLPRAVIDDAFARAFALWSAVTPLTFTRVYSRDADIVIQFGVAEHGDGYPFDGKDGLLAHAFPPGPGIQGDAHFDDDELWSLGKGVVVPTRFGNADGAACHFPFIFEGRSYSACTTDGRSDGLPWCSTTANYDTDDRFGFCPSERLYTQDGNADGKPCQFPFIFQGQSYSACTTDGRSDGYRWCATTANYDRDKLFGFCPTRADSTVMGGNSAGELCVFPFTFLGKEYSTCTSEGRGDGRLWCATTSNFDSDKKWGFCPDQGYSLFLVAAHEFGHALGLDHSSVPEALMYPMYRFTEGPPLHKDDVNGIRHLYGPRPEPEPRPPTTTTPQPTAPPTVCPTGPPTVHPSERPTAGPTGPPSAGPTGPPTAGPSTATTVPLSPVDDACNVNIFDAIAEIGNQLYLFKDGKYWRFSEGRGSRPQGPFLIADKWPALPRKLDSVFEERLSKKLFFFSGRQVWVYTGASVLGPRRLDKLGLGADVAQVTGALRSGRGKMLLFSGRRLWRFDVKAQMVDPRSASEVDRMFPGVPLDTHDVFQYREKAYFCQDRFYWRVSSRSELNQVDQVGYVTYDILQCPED

[1] = set-up: AUC (0-∞): unit not given beside the values; settings: for t½ Hour: Rat Intravenous 20 mpk
[2] = Inhibition Table A, read-out: MMP-2 IC50
[3] = Inhibition Table A, read-out: MMP-1 IC50
[4] = Inhibition Table A, read-out: MMP-13 IC50
[5] = Inhibition Table A, read-out: MMP-9 IC50
[6] = Inhibition Table B, read-out: MMP-2 IC50
[7] = Inhibition Table B, read-out: MMP-13 IC50
[8] = Inhibition Table B, read-out: MMP-9 IC50
[9] = Inhibition Table B, read-out: MMP-1 IC50

Row | SMILES | IC50 (recombinant human MMP-2; [6]) [nM] | t½ Hour [1] [min] | IC50 (recombinant human MMP-13; [7]) [nM] | IC50 (recombinant human MMP-9; [8]) [nM] | IC50 (recombinant human MMP-1; [9]) [µM] | other results
1 | O=C(NO)C1(S(=O)(=O)c2ccc(Oc3ccccc3)cc2)CCNCC1 [Example 4] | – | – | – | – | – | IC50 (recombinant human MMP-2; [2]): 0.23 nM; IC50 (recombinant human MMP-1; [3]): 1.09 µM; IC50 (TNFα): > 50 µM; IC50 (recombinant human MMP-13; [4]): 0.35 nM; IC50 (recombinant human MMP-9; [5]): 5 nM
2 | C#CCN1CCC(C(=O)NO)(S(=O)(=O)c2ccc(Oc3ccccc3)cc2)CC1 [Example 6] | – | – | – | – | – | IC50 (recombinant human MMP-2; [2]): 0.15 nM; IC50 (recombinant human MMP-1; [3]): 0.327 µM; IC50 (TNFα): > 50 µM; IC50 (recombinant human MMP-13; [4]): 0.25 nM
3 | C#CCN1CCC(C(=O)NO)(S(=O)(=O)c2ccc(Sc3ccccc3)cc2)CC1 [Example 9] | – | – | – | – | – | IC50 (recombinant human MMP-2; [2]): 0.2 nM; IC50 (recombinant human MMP-1; [3]): 9 µM; IC50 (TNFα): > 50 µM
4 | C#CCN1CCC(C(=O)NO)(S(=O)(=O)c2ccc(Oc3ccc4c(c3)OCO4)cc2)CC1 [Example 10] | – | – | – | – | – | IC50 (recombinant human MMP-1; [3]): 1.6 µM; IC50 (TNFα): > 50 µM; IC50 (recombinant human MMP-13; [4]): 0.4 nM
5 | C#CCN1CCC(C(=O)NO)(S(=O)(=O)c2ccc(SC3CCCCC3)cc2)CC1 [Example 13] | – | – | – | – | – | IC50 (recombinant human MMP-2; [2]): 0.4 nM; IC50 (TNFα): > 50 µM; IC50 (recombinant human MMP-13; [4]): 0.6 nM
7 | O=C(NO)C1(S(=O)(=O)c2ccc(Sc3ccc(F)cc3)cc2)CCN(C2CC2)CC1 [Example 27] | – | – | – | – | – | IC50 (recombinant human MMP-2; [2]): 0.4 nM; IC50 (recombinant human MMP-1; [3]): > 10 µM; IC50 (TNFα): > 80 µM; IC50 (recombinant human MMP-13; [4]): 0.45 nM; IC50 (recombinant human MMP-9; [5]): 4 nM
8 | Cl.O=C(NO)C1(S(=O)(=O)c2ccc(Sc3ccccc3)cc2)CCN(C2CC2)CC1 [Example 32, 1-cyclopropyl-N-hydroxy-4-[[4-(phenylthio)phenyl]sulfonyl]-4-piperidine Carboxamide, Monohydrochloride] | 0.1 | 61.8 | 0.2 | 2.5 | – | IC50 (recombinant human MMP-1): > 10 µM
9 | CN1CCC(C(=O)NO)(S(=O)(=O)c2ccc(Sc3ccccc3)cc2)CC1.Cl [Example 33, N-hydroxy-1-methyl-4-[[4-(phenylthio)phenyl]sulfonyl]-4-piperidinecarboxamide, Monohydrochloride] | 0.5 | 115 | 0.8 | 9.4 | – | IC50 (recombinant human MMP-1): > 10 µM
10 | COCCN1CCC(C(=O)NO)(S(=O)(=O)c2ccc(Sc3ccccc3)cc2)CC1 [Example 35, N—hydroxy-1-(2-methoxyethyl)-4-[[4-(phenylthio)phenyl]-sulfonyl]-4-piperidinecarboxamide, Monohydrochloride] | 0.3 | – | 0.5 | 3 | > 10 | IC50 (TNFα): > 80 µM
11 | CC(=O)N1CCC(C(=O)NO)(S(=O)(=O)c2ccc(Sc3ccccc3)cc2)CC1.Cl [Example 36, 1-acetyl-N-hydroxy-4-[[4-(phenylthio)phenyl]sulfonyl]-4-piperidinecarboxamide, Monohydrochloride] | 0.4 | 39 | 0.6 | 8 | 7.3 | –
12 | C#CCN1CCC(C(=O)NO)(S(=O)(=O)c2ccc(Oc3ccc(C)c(C)c3)cc2)CC1.Cl [Example 43, 4-[[4-(3,4-Dimethylphenoxyl)phenyl]sulfonyl]-N-hydroxy-1-(2-propynyl)-4-piperidinecarboxamide, Monhydrochloride] | 0.4 | 49.2 | 0.8 | – | 7 | –
13 | Cl.O=C(NO)C1(S(=O)(=O)c2ccc(Oc3ccc(-n4cncn4)cc3)cc2)CCS(=O)(=O)CC1 [Example 53, Tetrahydro-N-hydroxy-4-[[4-[4-(1H-1,2,4-triazol-1-yl)phenoxy]-phenyl]-sulfonyl]-2H-thiopyran-4-carboxamide 1,1-dioxide, Monohydrochloride] | 0.3 | 58.2 | 1.5 | 92 | > 10 | –
14 | O=C(NO)C1(S(=O)(=O)c2ccc(Sc3ccc(OC(F)(F)F)cc3)cc2)CCOCC1 [Example 73, tetrahydro-N-hydroxy-4-[[4-[4-(trifluoromethoxy)phenylthio]-phenyl]-sulfonyl]-2H-pyran-4-carboxamide] | – | – | – | 0.2 | 1.14 | IC50 (recombinant human MMP-2; MMP-2 IC50 (nM)): < 0.1 nM; Blood Level @ 6 hr ([1]; rat, in vivo, po, 20 mg/kg): 0.372 µg/mL; IC50 (recombinant human MMP-13): < 0.1 nM
15 | C#CCN1CCC(C(=O)NO)(S(=O)(=O)c2ccc(Oc3ccc(Cl)c(C)c3)cc2)CC1.Cl [Example 81, 4-[[4-(4-chloro-3-methylphenoxy)phenyl]sulfonyl]-N-hydroxy-1-(2-propynyl)-4-piperidinecarboxamide, Monohydrochloride] | 0.1 | 45.6 | 0.3 | – | 3.3 | –
16 | Cl.O=C(NO)C1(S(=O)(=O)c2ccc(Oc3ccc(Cl)cc3)cc2)CCNCC1 [Example 93, 4-[[4-(4-chlorophenoxy)-phenyl]sulfonyl]-N-hydroxy-4-piperidinecarboxamide, Monohydrochloride] | 0.4 | 109 | 0.7 | 3.5 | 8 | –
17 | Cl.O=C(NO)C1(S(=O)(=O)c2ccc(Oc3ccc(-n4ccnc4)cc3)cc2)CCOCC1 [Example 99, tetrahydro-N-hydroxy-4-[[4-[4-(1H-imidazol-1-yl)phenoxy]phenyl]-sulfonyl]-2H-pyran-4-carboxamide, Monohydrochloride] | 0.4 | 40.8 | 1 | – | > 10 | –
18 | O=C(NO)C1(S(=O)(=O)c2ccc(Sc3ccc(F)cc3)cc2)CCOCC1 [Example 103, 4-[[4-[(4-fluorophenyl)-thio]phenyl]sulfonyl]tetrahydro-N-hydroxy-2H-pyran-4-carboxamide] | 0.8 | 66 | 0.7 | 10 | > 10 | –
19 | Cl.O=C(NO)C1(S(=O)(=O)c2ccc(Sc3ccncc3)cc2)CCOCC1 [Example 104, Tetrahydro-N-hydroxy-4-[[4-(4-pyridinylthio)phenyl]sulfonyl]-2H-pyran-4-carboxamide, Monohydrochloride] | 1.5 | 39.6 | 0.65 | 42.8 | > 10 | –
20 | O=C(NO)C1(S(=O)(=O)c2ccc(Oc3ccccc3)cc2)CCSCC1 [Example 109] | 0.1 | 67.2 | 0.3 | 0.7 | 0.5 | –
21 | O=C(NO)C1(S(=O)(=O)c2ccc(Oc3ccccc3)cc2)CC[S+]([O-])CC1 (stereo not drawn) [Example 111] | 0.5 | 39 | 1.3 | – | 3.7 | –
22 | O=C(O)CNc1ccc(Oc2ccc(S(=O)(=O)C3(C(=O)NO)CCSCC3)cc2)cc1 [Example 117, tetrahydro-N-hydroxy-4-[[4-[4-hydroxyphenyl Glycine)]phenyl] Sulfonyl 2H-thiopyran-4-carboxamide] | 0.6 | 46.8 | 4.8 | 45.4 | 3.7 | –
23 | NCC(=O)Nc1ccc(Sc2ccc(S(=O)(=O)C3(C(=O)NO)CCSCC3)cc2)cc1 [Example 118, tetrahydro-N-hydroxy-4-[[4-[4-hydroxyphenylglycine))phenyl] Sulfonyl 2H-thiopyran-4-carboxamide] | 0.3 | 111 | 0.8 | 50 | 2.85 | –
24 | CC(C)c1ccc(Oc2ccc(S(=O)(=O)C3(C(=O)NO)CCOCC3)cc2)cc1 [Example 125] | 0.4 | 43.8 | 0.5 | 7 | > 10 | –
